# Measured values published in patent US20230157952A1, “METHOD FOR IMPROVING THE STABILITY OF A PHARMACEUTICAL COMPOSITION COMPRISING A HIGH PENETRATION DRUG, AND THE PHARMACEUTICAL COMPOSITION OBTAINED THEREFROM” (Techfields Inc., priority 2020, published 2023).
# Columns and labels:
# [1] = Effect of concentration on the stability of the solution (purity over time); conditions: in water at 25° C.
# [2] = Effect of temperature (and pH) on the stability of the solution (purity); format: physicochemical; conditions: 7% solution in water
smiles,measurement,setting,value
CCN(CC)CCOC(=O)Cc1c(C)n(C(=O)c2ccc(Cl)cc2)c2ccc(OC)cc12.Cl [2-(diethylamino)ethyl 1-(4-chlorobenzoyl)-5-methoxy-2-methyl-1H-indole-3-acetate•HCl],Purity at Day 3,[1]; 0.01 wt %,84.2%
same,Purity at Day 7,[1]; 0.01 wt %,72.9%
same,Purity at Day 14,[1]; 0.01 wt %,61.3%
same,Purity at Day 21,[1]; 0.01 wt %,53.4%
same,Purity at Day 28,[1]; 0.01 wt %,45.5%
same,Purity at hr 0,[1]; 0.01 wt %,98.0%
same,Purity at Day 3,[1]; 0.1 wt %,96.3%
same,Purity at Day 7,[1]; 0.1 wt %,93.6%
same,Purity at Day 14,[1]; 0.1 wt %,88.9%
same,Purity at Day 21,[1]; 0.1 wt %,84.7%
same,Purity at Day 28,[1]; 0.1 wt %,78.7%
same,Purity at hr 0,[1]; 0.1 wt %,98.2%
same,Purity at Day 3,[1]; 1 wt %,97.2%
same,Purity at Day 7,[1]; 1 wt %,96.1%
same,Purity at Day 14,[1]; 1 wt %,94.0%
same,Purity at Day 21,[1]; 1 wt %,92.4%
same,Purity at Day 28,[1]; 1 wt %,91.2%
same,Purity at hr 0,[1]; 1 wt %,98.3%
same,Purity at Day 3,[1]; 3 wt %,97.8%
same,Purity at Day 7,[1]; 3 wt %,97.2%
same,Purity at Day 14,[1]; 3 wt %,96.0%
same,Purity at Day 21,[1]; 3 wt %,95.0%
same,Purity at Day 28,[1]; 3 wt %,94.1%
same,Purity at hr 0,[1]; 3 wt %,98.4%
same,Purity at Day 3,[1]; 5 wt %,98.3%
same,Purity at Day 7,[1]; 5 wt %,98.0%
same,Purity at Day 14,[1]; 5 wt %,97.7%
same,Purity at Day 21,[1]; 5 wt %,97.1%
same,Purity at Day 28,[1]; 5 wt %,96.5%
same,Purity at hr 0,[1]; 5 wt %,98.5%
same,Purity at Day 3,[1]; 7 wt %,98.4%
same,Purity at Day 7,[1]; 7 wt %,98.2%
same,Purity at Day 14,[1]; 7 wt %,98.0%
same,Purity at Day 21,[1]; 7 wt %,97.7%
same,Purity at Day 28,[1]; 7 wt %,97.4%
same,Purity at hr 0,[1]; 7 wt %,98.5%
same,Purity at Day 3,[1]; 8 wt %,98.4%
same,Purity at Day 7,[1]; 8 wt %,98.3%
same,Purity at Day 14,[1]; 8 wt %,98.0%
same,Purity at Day 21,[1]; 8 wt %,97.8%
same,Purity at Day 28,[1]; 8 wt %,97.4%
same,Purity at hr 0,[1]; 8 wt %,98.6%
same,Purity at Day 3,[1]; 10 wt %,98.4%
same,Purity at Day 7,[1]; 10 wt %,98.3%
same,Purity at Day 14,[1]; 10 wt %,98.2%
same,Purity at Day 21,[1]; 10 wt %,98.0%
same,Purity at Day 28,[1]; 10 wt %,97.6%
same,Purity at hr 0,[1]; 10 wt %,98.5%
same,Purity at Day 3,[1]; 15 wt %,98.4%
same,Purity at Day 7,[1]; 15 wt %,98.2%
same,Purity at Day 14,[1]; 15 wt %,98.1%
same,Purity at Day 21,[1]; 15 wt %,98.0%
same,Purity at Day 28,[1]; 15 wt %,97.5%
same,Purity at hr 0,[1]; 15 wt %,98.5%
same,Purity at Day 3,[1]; 20 wt %,98.4%
same,Purity at Day 7,[1]; 20 wt %,98.5%
same,Purity at Day 14,[1]; 20 wt %,98.2%
same,Purity at Day 21,[1]; 20 wt %,98.1%
same,Purity at Day 28,[1]; 20 wt %,97.7%
same,Purity at hr 0,[1]; 20 wt %,98.6%
same,Purity at Day 3,[1]; 30 wt %,98.5%
same,Purity at Day 7,[1]; 30 wt %,98.3%
same,Purity at Day 14,[1]; 30 wt %,98.0%
same,Purity at Day 21,[1]; 30 wt %,98.1%
same,Purity at Day 28,[1]; 30 wt %,97.5%
same,Purity at hr 0,[1]; 30 wt %,98.5%
same,Purity at Day 3,[1]; 50 wt %,98.5%
same,Purity at Day 7,[1]; 50 wt %,98.4%
same,Purity at Day 14,[1]; 50 wt %,98.1%
same,Purity at Day 21,[1]; 50 wt %,97.9%
same,Purity at Day 28,[1]; 50 wt %,97.6%
same,Purity at hr 0,[1]; 50 wt %,98.6%
same,Stability when the concentration is 0.1% or lower,[1],not stable
same,Stability of the solution at a temperature higher than 40° C. and a pH lower than 3 or greater than 6,[2],not stable
CCN(CC)CCOC(=O)Cc1ccc(C(=O)c2ccc(C)cc2)n1C.Cl [2-(diethylamino)ethyl 1-methyl-5-(4-methylbenzoyl)-1H-pyrrole-2-acetate•HCl],Purity at Day 3,[1]; 0.01 wt %,82.3%
same,Purity at Day 7,[1]; 0.01 wt %,72.2%
same,Purity at Day 14,[1]; 0.01 wt %,57.4%
same,Purity at Day 21,[1]; 0.01 wt %,45.4%
same,Purity at Day 28,[1]; 0.01 wt %,35.7%
same,Purity at hr 0,[1]; 0.01 wt %,97.4%
same,Purity at Day 3,[1]; 0.1 wt %,95.6%
same,Purity at Day 7,[1]; 0.1 wt %,93.3%
same,Purity at Day 14,[1]; 0.1 wt %,88.3%
same,Purity at Day 21,[1]; 0.1 wt %,83.5%
same,Purity at Day 28,[1]; 0.1 wt %,78.1%
same,Purity at hr 0,[1]; 0.1 wt %,97.5%
same,Purity at Day 3,[1]; 1 wt %,95.7%
same,Purity at Day 7,[1]; 1 wt %,94.6%
same,Purity at Day 14,[1]; 1 wt %,92.3%
same,Purity at Day 21,[1]; 1 wt %,90.1%
same,Purity at Day 28,[1]; 1 wt %,88.6%
same,Purity at hr 0,[1]; 1 wt %,97.7%
same,Purity at Day 3,[1]; 3 wt %,96.5%
same,Purity at Day 7,[1]; 3 wt %,96.2%
same,Purity at Day 14,[1]; 3 wt %,94.8%
same,Purity at Day 21,[1]; 3 wt %,94.0%
same,Purity at Day 28,[1]; 3 wt %,92.7%
same,Purity at hr 0,[1]; 3 wt %,97.9%
same,Purity at Day 3,[1]; 5 wt %,97.2%
same,Purity at Day 7,[1]; 5 wt %,97.0%
same,Purity at Day 14,[1]; 5 wt %,96.8%
same,Purity at Day 21,[1]; 5 wt %,95.6%
same,Purity at Day 28,[1]; 5 wt %,94.4%
same,Purity at hr 0,[1]; 5 wt %,97.9%
same,Purity at Day 3,[1]; 7 wt %,97.5%
same,Purity at Day 7,[1]; 7 wt %,97.2%
same,Purity at Day 14,[1]; 7 wt %,97.2%
same,Purity at Day 21,[1]; 7 wt %,96.7%
same,Purity at Day 28,[1]; 7 wt %,96.5%
same,Purity at hr 0,[1]; 7 wt %,98.1%
same,Purity at Day 3,[1]; 8 wt %,97.7%
same,Purity at Day 7,[1]; 8 wt %,97.3%
same,Purity at Day 14,[1]; 8 wt %,96.9%
same,Purity at Day 21,[1]; 8 wt %,96.9%
same,Purity at Day 28,[1]; 8 wt %,96.6%
same,Purity at hr 0,[1]; 8 wt %,98.1%
same,Purity at Day 3,[1]; 10 wt %,97.9%
same,Purity at Day 7,[1]; 10 wt %,97.5%
same,Purity at Day 14,[1]; 10 wt %,97.3%
same,Purity at Day 21,[1]; 10 wt %,97.1%
same,Purity at Day 28,[1]; 10 wt %,96.5%
same,Purity at hr 0,[1]; 10 wt %,98.2%
same,Purity at Day 3,[1]; 15 wt %,97.7%
same,Purity at Day 7,[1]; 15 wt %,97.6%
same,Purity at Day 14,[1]; 15 wt %,97.4%
same,Purity at Day 21,[1]; 15 wt %,97.1%
same,Purity at Day 28,[1]; 15 wt %,96.8%
same,Purity at hr 0,[1]; 15 wt %,98.1%
same,Purity at Day 3,[1]; 20 wt %,97.6%
same,Purity at Day 7,[1]; 20 wt %,97.5%
same,Purity at Day 14,[1]; 20 wt %,97.2%
same,Purity at Day 21,[1]; 20 wt %,97.1%
same,Purity at Day 28,[1]; 20 wt %,96.8%
same,Purity at hr 0,[1]; 20 wt %,98.0%
same,Purity at Day 3,[1]; 30 wt %,97.7%
same,Purity at Day 7,[1]; 30 wt %,97.5%
same,Purity at Day 14,[1]; 30 wt %,97.3%
same,Purity at Day 21,[1]; 30 wt %,97.0%
same,Purity at Day 28,[1]; 30 wt %,96.7%
same,Purity at hr 0,[1]; 30 wt %,98.1%
same,Purity at Day 3,[1]; 50 wt %,97.8%
same,Purity at Day 7,[1]; 50 wt %,97.5%
same,Purity at Day 14,[1]; 50 wt %,97.2%
same,Purity at Day 21,[1]; 50 wt %,96.9%
same,Purity at Day 28,[1]; 50 wt %,96.8%
same,Purity at hr 0,[1]; 50 wt %,98.2%
same,Stability when the concentration is 0.1% or lower,[1],not stable
same,Stability of the solution at a temperature higher than 40° C. and a pH lower than 3 or greater than 6,[2],not stable
